Reference: US11744804B2, “Microcapsule powder stable in gastric acid, method for preparing same, and use thereof” (HOBOOMLIFE BIO-TECHNOLOGY (SHENZHEN) CO., LTD., priority 2021, dated 2023)

Experiment: Release test in artificial intestinal juice
Assay type: physicochemical
Details: for Dissolution rate of core material after 1 h / Dissolution rate of core material after 2 h / Dissolution rate of core material after 3 h / Dissolution rate of core material after 4 h: artificial intestinal juice, 37° C., 100 r/min; for Retention rate of NADH before test: before artificial intestinal juice test
Procedure: A Tablet Four-Usage Tester was used for testing. The tester was started for preheating. The temperature was set at 37° C. A basket shaft and a basket were installed. A positioning ball used for positioning (marked) was put into a dissolution cup (900 mL of prepared artificial intestinal juice was added into each dissolution cup) and fixed. 200 mg of sample 2 and 200 mg of sample 5 in the examples as well as 200 mg of corresponding core materials were taken respectively, wrapped with gauze and put into corresponding baskets. After being rotated at 100 r/min for 1, 2, 3 and 4 h, 1 mL of liquid was taken from each of the dissolution cups. The contents of the core materials in the samples were detected by the same detection method as in Example 1.
Retention rate of core material=(Theoretical embedding amount of core material in sample-Content of core material in artificial intestinal juice detected)/Theoretical embedding amount of core material in sample. The theoretical embedding amount of the core material in the sample is the added amount of the core material in the sample.

Row | Structure (SMILES) | Dissolution rate of core material after 1 h [%] | Dissolution rate of core material after 2 h [%] | Dissolution rate of core material after 3 h [%] | Dissolution rate of core material after 4 h [%] | Retention rate of NADH before test [%]
1 | NC(=O)C1=CN([C@@H]2O[C@H](COP(=O)(O)OP(=O)(O)OC[C@H]3O[C@@H](n4cnc5c(N)ncnc54)[C@H](OP(=O)(O)O)[C@@H]3O)[C@@H](O)[C@H]2O)C=CC1 [NADPH, reduced nicotinamide adenine dinucleotide phosphate] | 98.4 | 99.7 | 99.3 | 99.1 | 100
2 | NC(=O)C1=CN([C@@H]2O[C@H](COP(=O)(O)OP(=O)(O)OC[C@H]3O[C@@H](n4cnc5c(N)ncnc54)[C@H](O)[C@@H]3O)[C@@H](O)[C@H]2O)C=CC1 [NADH, reduced nicotinamide adenine dinucleotide] | 99.6 | 99.5 | 99.4 | 99.5 | 100
